Experimental findings from publication PMC5748531, “Antimycobacterial Activities of N-Substituted-Glycinyl 1H-1,2,3-Triazolyl Oxazolidinones and Analytical Method Development and Validation for a Representative Compound” (Scientia Pharmaceutica, 2017) are described below.

Assay in all cases: microbe, parasite or virus in culture
Holding throughout (assay type): cell-based, Mycobacterium tuberculosis

Assay [1] has as its system isoniazid (INH)-resistant Mtb (SRI 1369). The following applies: for MIC: Mycobacterium tuberculosis, 168 h, read-out: MIC INH-R, broth microdilution, 7 days at 37 °C.
Assay [2] has as its system rifampin (RMP)-resistant Mtb (SRI 1367). Particulars: for MIC: Mycobacterium tuberculosis, 168 h, read-out: MIC RMP-R, broth microdilution, 7 days at 37 °C.
Assay [3] concerns ofloxacin (OFX)-resistant Mtb (SRI 4000). The following applies: for MIC: Mycobacterium tuberculosis, 168 h, read-out: MIC OFX-R, broth microdilution, 7 days at 37 °C; for MIC OFX-R: broth microdilution, 7 days at 37 °C.
[4] abbreviates: broth microdilution, 7 days at 37 °C.

Values after ≈ are worked out from the molar mass of the structure shown.

`Cc1cn(CC2CN(c3ccc(N4CCN(C(=O)CN)CC4)c(F)c3)C(=O)O2)nn1` (stereo not drawn) [PH-151]: the MIC turned out to be 11.6 µM (≈ 4.84 µg/mL) in assay [1], 5.8 µM (≈ 2.42 µg/mL) in assay [2] and 11.6 µM (≈ 4.84 µg/mL) in assay [3].

As for `Cc1cn(CC2CN(c3ccc(N4CCN(C(=O)CNC(=O)c5cccnc5)CC4)c(F)c3)C(=O)O2)nn1` (stereo not drawn) [PH-185], the MIC was determined as 2.9 µM (≈ 1.52 µg/mL) in assay [1], 5.7 µM (≈ 2.98 µg/mL) in assay [2] and 1.44 µM (≈ 0.752 µg/mL) in assay [3].

In the case of `CC(=O)NCC(=O)N1CCN(c2ccc(N3CC(Cn4ccnn4)OC3=O)cc2F)CC1` (stereo not drawn) [PH-165], the results for the MIC in assay [1], in assay [2] and in assay [3] were 4.5 µM (≈ 2 µg/mL), 6.7 µM (≈ 2.98 µg/mL) and 3.4 µM (≈ 1.51 µg/mL), respectively.

Turning to `Cc1cn(CC2CN(c3ccc(N4CCN(C(=O)CNC(=O)c5ccc([N+](=O)[O-])o5)CC4)c(F)c3)C(=O)O2)nn1` (stereo not drawn) [PH-145], the MIC in assay [1] fell in the range of 0.056 to 0.11 µM (≈ 0.0312 to 0.0612 µg/mL); in assay [2], 0.11 to 0.46 µM (≈ 0.0612 to 0.256 µg/mL); in assay [3], 0.03 to 0.056 µM (≈ 0.0167 to 0.0312 µg/mL). Further, in assay [2] (setting [4]), the “MIC RMP-R” value came to 0.11 µM (≈ 0.0612 µg/mL). Besides, the “MIC OFX-R” value in assay [3] was found to be 0.056 µM (≈ 0.0312 µg/mL).

Regarding `O=C(NCC(=O)N1CCN(c2ccc(N3CC(Cn4ccnn4)OC3=O)cc2F)CC1)c1ccc([N+](=O)[O-])o1` (stereo not drawn) [PH-189], the MIC in assay [1] was 0.056 to 0.11 µM (≈ 0.0304 to 0.0597 µg/mL). In assay [1] (setting [4]), the “MIC INH-R” value was in the range of 0.057 to 0.12 µM. Besides, in assay [3], the MIC is 0.03 to 0.056 µM (≈ 0.0163 to 0.0304 µg/mL) and the “MIC OFX-R” value came to 0.03 µM (≈ 0.0163 µg/mL).

For the compound `NCC(=O)N1CCN(c2ccc(N3CC(Cn4ccnn4)OC3=O)cc2F)CC1` (stereo not drawn) [PH-172], the values for the MIC in assay [1], in assay [2] and in assay [3] were 7.2 µM (≈ 2.9 µg/mL), 3.6 µM (≈ 1.45 µg/mL) and 3.6 µM (≈ 1.45 µg/mL), respectively.

Turning to `CCOC(=O)CC(=O)NCC(=O)N1CCN(c2ccc(N3CC(Cn4cc(C)nn4)OC3=O)cc2F)CC1` (stereo not drawn) [PH-150], the MIC in assay [1], in assay [2] and in assay [3] was 2.9 µM (≈ 1.54 µg/mL) each time.

`O=C(NCC(=O)N1CCN(c2ccc(N3CC(Cn4ccnn4)OC3=O)cc2F)CC1)c1cc([N+](=O)[O-])cc([N+](=O)[O-])c1` (stereo not drawn) [PH-193]: the MIC in assay [1] turned out to be 0.42 µM (≈ 0.251 µg/mL); in assay [2], 0.22 µM (≈ 0.131 µg/mL); in assay [3], 0.052 µM (≈ 0.0311 µg/mL).

As for `NNC(=O)c1ccncc1` [INH, Isoniazid, reference compound], the MIC in assay [2] was 0.15 µM (≈ 0.0206 µg/mL).

Take `Cc1cn(CC2CN(c3ccc(N4CCN(C(=O)CNC(=O)c5cc([N+](=O)[O-])cc([N+](=O)[O-])c5)CC4)c(F)c3)C(=O)O2)nn1` (stereo not drawn) [PH-181]: the results for the MIC in assay [1], in assay [2] and in assay [3] were 0.85 to 1.64 µM (≈ 0.52 to 1 µg/mL), 0.82 µM (≈ 0.501 µg/mL) and 0.82 µM (≈ 0.501 µg/mL), respectively.

As to `CO[C@H]1/C=C/O[C@@]2(C)Oc3c(C)c(O)c4c(O)c(c(/C=N/N5CCN(C)CC5)c(O)c4c3C2=O)NC(=O)/C(C)=C\C=C\[C@H](C)[C@H](O)[C@@H](C)[C@@H](O)[C@@H](C)[C@H](OC(C)=O)[C@@H]1C` [RMP, Rifampicin, reference compound], the MIC turned out to be 0.06 µM (≈ 0.0494 µg/mL) in assay [1] and 0.95 µM (≈ 0.782 µg/mL) in assay [3].

With `O=C(NCC(=O)N1CCN(c2ccc(N3CC(Cn4ccnn4)OC3=O)cc2F)CC1)c1cccnc1` (stereo not drawn) [PH-195], the MIC in assay [1] came out at 2 µM (≈ 1.02 µg/mL); in assay [2], 0.98 µM (≈ 0.498 µg/mL); in assay [3] it was 0.49 µM (≈ 0.249 µg/mL).

Consider `Cc1cn(CC2CN(c3ccc(N4CCN(C(=O)CNC(=O)C(Cl)Cl)CC4)c(F)c3)C(=O)O2)nn1` (stereo not drawn) [PH-182], for which the results for the MIC in assay [1], in assay [2] and in assay [3] were 0.95 µM (≈ 0.502 µg/mL), 0.95 µM (≈ 0.502 µg/mL) and 0.47 µM (≈ 0.248 µg/mL), respectively.

As to `CCOC(=O)CC(=O)NCC(=O)N1CCN(c2ccc(N3CC(Cn4ccnn4)OC3=O)cc2F)CC1` (stereo not drawn) [PH-169], the MIC in assay [1] is 1.45 to 2.9 µM (≈ 0.75 to 1.5 µg/mL); in assay [2], 1.45 µM (≈ 0.75 µg/mL); in assay [3], 1.45 µM (≈ 0.75 µg/mL).
